# Measurements as given in patent US9795607B2, “Substituted pyrrolopyrimidine compounds, compositions thereof, and methods of treatment therewith” (Signal Pharmaceutical, LLC, priority 2013, dated 2017).
# pIC50: −log10 of the molar value.
# Test system: Triple negative breast cancer cell line CAL51
# Test: Cell Titer Glo proliferation assay, CAL51
# Assay type: cell-based
# Conditions: Homo sapiens, CAL-51; CAL51 cell proliferation (Table 1); read-out: Act. Level
# How it was run: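 CAL51 cells grown in DMEM or RPMI1640 with 10% FBS and 2 mM L-glutamine, cultured overnight, then exposed to serially diluted compound (0.2% DMSO final) for 72 h. Viability read by Cell Titer Glo luminescence.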
row,pIC50,Structure (SMILES)
1,> 7.00,"COc1nc(Nc2ccc(C(=O)N(C)C)cc2C)nc2[nH]cc(-c3ccc4[nH]c(C)nc4c3)c12 [Example 399, 4-(4-methoxy-5-(2-methyl-1H-benzo[d]imidazol-5-yl)-7H-pyrrolo[2,3-d]pyrimidin-2-ylamino)-N,N,3-trimethylbenzamide]"
2,> 7.00,"CNC(=O)c1ccc(-c2c[nH]c3nc(Nc4ccc(C(=O)NC)cc4Cl)nc(OC(C)C)c23)cc1 [Example 432, 3-chloro-4-(4-isopropoxy-5-(4-(methylcarbamoyl)phenyl)-7H-pyrrolo[2,3-d]pyrimidin-2-ylamino)-N-methylbenzamide]"
3,6.40 to 7.00,"COc1cc(C(=O)NC2COC2)ccc1Nc1nc(OC)c2c(-c3cc(C)nc(F)c3)c[nH]c2n1 [Example 424, 4-(5-(2-fluoro-6-methylpyridin-4-yl)-4-methoxy-7H-pyrrolo[2,3-d]pyrimidin-2-ylamino)-3-methoxy-N-(oxetan-3-yl)benzamide]"
4,> 7.00,"Cc1nc2ccc(-c3c[nH]c4nc(Nc5ccc(C(=O)NCCO)cc5Cl)nc(OC5CCOCC5)c34)cc2o1 [Example 431, 3-chloro-N-(2-hydroxyethyl)-4-(5-(2-methylbenzo[d]oxazol-6-yl)-4-(tetrahydro-2H-pyran-4-yloxy)-7H-pyrrolo(2,3-d]pyrimidin-2-ylamino)benzamide]"
5,6.40 to 7.00,"COc1cc(C(=O)N(C)C2COC2)ccc1Nc1nc(OC)c2c(-c3ccnc(F)c3)c[nH]c2n1 [Example 413, 4-(5-(2-fluoropyridin-4-yl)-4-methoxy-7H-pyrrolo[2,3-d]pyrimidin-2-ylamino)-3-methoxy-N-methyl-N-(oxetan-3-yl)benzamide]"
6,6.00 to 6.40,"COc1cc(C(=O)N(C)C)ncc1Nc1nc(OC)c2c(-c3ccnc(F)c3)c[nH]c2n1 [Example 415, 5-(5-(2-fluoropyridin-4-yl)-4-methoxy-7H-pyrrolo[2,3-d]pyrimidin-2-ylamino)-4-methoxy-N,N-dimethylpicolinamide]"

# Same assay, conditions: Homo sapiens, CAL-51; CAL51 cell proliferation, Cell Titer Glo; read-out: Act. Level
row,pIC50,Structure (SMILES)
1,6.00 to 6.40,"COc1cc(C(=O)N2CC2)ccc1Nc1nc(OC)c2c(-c3ccncc3)c[nH]c2n1 [Example 338, aziridin-1-yl(3-methoxy-4-(4-methoxy-5-(pyridin-4-yl)-7H-pyrrolo[2,3-d]pyrimidin-2-ylamino)phenyl)methanone]"
2,> 7.00,"COc1nc(Nc2ccc(C(=O)N(C)C)cc2C)nc2[nH]cc(-c3ccc(-c4ncc[nH]4)cc3)c12 [Example 397, 4-(5-(4-(1H-imidazol-2-yl)phenyl)-4-methoxy-7H-pyrrolo[2,3-d]pyrimidin-2-ylamino)-N,N,3-trimethylbenzamide]"
3,6.40 to 7.00,"CNC(=O)c1ccc(Nc2nc(OC)c3c(-c4ccc5c(C)noc5c4)c[nH]c3n2)c(OC)c1 [Example 388, 3-methoxy-4-(4-methoxy-5-(3-methylbenzo[d]isoxazol-6-yl)-7H-pyrrolo[2,3-d]pyrimidin-2-ylamino)-N-methylbenzamide]"
4,5.00 to 6.00,"COc1cc(C(=O)NC2COC2)ccc1Nc1nc(OC)c2c(-c3cn(C)nc3C)c[nH]c2n1 [Example 387, 4-(5-(1,3-dimethyl-1H-pyrazol-4-yl)-4-methoxy-7H-pyrrolo[2,3-d]pyrimidin-2-ylamino)-3-methoxy-N-(oxetan-3-yl)benzamide]"
5,> 7.00,"Cc1nc2ccc(-c3c[nH]c4nc(Nc5cnn(C6CCOCC6)c5Cl)nc(OC5CCCC5)c34)cc2o1 [Example 377, N-(5-chloro-1-(tetrahydro-2H-pyran-4-yl)-1H-pyrazol-4-yl)-4-(cyclopentyloxy)-5-(2-methylbenzo[d]oxazol-6-yl)-7H-pyrrolo[2,3-d]pyrimidin-2-amine]"
6,5.00 to 6.00,"COc1cc(C(=O)NC2COC2)ccc1Nc1nc(OC)c2c(-c3ccncn3)c[nH]c2n1 [Example 395, 3-methoxy-4-(4-methoxy-5-(pyrimidin-4-yl)-7H-pyrrolo[2,3-d]pyrimidin-2-ylamino)-N-(oxetan-3-yl)benzamide]"
7,6.40 to 7.00,"CCn1ncc(Nc2nc(OC3CCCC3)c3c(-c4ccc5nc(C)oc5c4)c[nH]c3n2)c1Cl [Example 385, N-(5-chloro-1-ethyl-1H-pyrazol-4-yl)-4-(cyclopentyloxy)-5-(2-methylbenzo[d]oxazol-6-yl)-7H-pyrrolo[2,3-d]pyrimidin-2-amine]"
8,6.40 to 7.00,"COc1nc(Nc2ccc(C(=O)NC3COC3)cc2C)nc2[nH]cc(-c3ccncc3)c12 [Example 396, 4-(4-methoxy-5-(pyridin-4-yl)-7H-pyrrolo[2,3-d]pyrimidin-2-ylamino)-3-methyl-N-(oxetan-3 yl)benzamide]"
9,> 7.00,"Cc1nc2ccc(-c3c[nH]c4nc(Nc5cnn(CC(C)(C)O)c5Cl)nc(OC5CCCC5)c34)cc2o1 [Example 371, 1-(5-chloro-4-(4-(cyclopentyloxy)-5-(2-methylbenzo[d]oxazol-6-yl)-7H-pyrrolo[2,3-d]pyrimidin-2-ylamino)-1H-pyrazol-1-yl)-2-methylpropan-2-ol]"
10,6.40 to 7.00,"COc1cc(C(=O)NCCO)ccc1Nc1nc(OC2CCOCC2)c2c(-c3cnn(C)c3)c[nH]c2n1 [Example 327, N-(2-hydroxyethyl)-3-methoxy-4-(5-(1-methyl-1H-pyrazol-4-yl)-4-(tetrahydro-2H-pyran-4-yloxy)-7H-pyrrolo[2,3-d]pyrimidin-2-ylamino)benzamide]"
11,6.40 to 7.00,"COc1cc(C(=O)NC2COC2)ccc1Nc1nc(OC(C)C)c2c(-c3ccc4nc(C)oc4c3)c[nH]c2n1 [Example 362, 4-(4-isopropoxy-5-(2-methylbenzo[d]oxazol-6-yl)-7H-pyrrolo[2,3-d]pyrimidin-2-ylamino)-3-methoxy-N-(oxetan-3-yl)benzamide]"
12,5.00 to 6.00,"CNC(=O)c1ccc(Nc2nc(OC3CCCC3)c3c(-c4cccc(C#N)c4)c[nH]c3n2)c(OC)c1 [Example 324, 4-(5-(3-cyanophenyl)-4-(cyclopentyloxy)-7H-pyrrolo[2,3-d]pyrimidin-2-ylamino)-3-methoxy-N-methylbenzamide]"
13,> 7.00,"CNC(=O)c1ccc(Nc2nc(OC3CCCC3)c3c(-c4cccc(O)c4)c[nH]c3n2)c(OC)c1 [Example 323, 4-(4-(cyclopentyloxy)-5-(3-hydroxyphenyl)-7H-pyrrolo[2,3-d]pyrimidin-2-ylamino)-3-methoxy-N-methylbenzamide]"
14,> 7.00,"CNC(=O)c1ccc(Nc2nc(OC3CCC(C)(O)CC3)c3c(-c4ccc5nc(C)oc5c4)c[nH]c3n2)c(OC)c1 (centres unmarked) [Example 205, 4-(4-((1r,4r)-4-hydroxy-4-methylcyclohexyloxy)-5-(2-methylbenzo[d]oxazol-6-yl)-7H-pyrrolo[2,3-d]pyrimidin-2-ylamino)-3-methoxy-N-methylbenzamide]"

row,Structure (SMILES),pIC50
1,"CNC(=O)c1ccc(-c2c[nH]c3nc(Nc4ccc(C(=O)NC5COC5)cc4C)nc(OC4CCC4)c23)cc1 [Example 332, 4-(4-cyclobutoxy-5-(4-(methylcarbamoyl)phenyl)-7H-pyrrolo[2,3-d]pyrimidin-2-ylamino)-3-methyl-N-(oxetan-3-yl)benzamide]",> 7.00
2,"CNC(=O)c1ccc(-c2c[nH]c3nc(Nc4cn(C)nc4C)nc(OC4CCC4)c23)cc1 [Example 340, 4-(4-cyclobutoxy-2-(1,3-dimethyl-1H-pyrazol-4-ylamino)-7H-pyrrolo[2,3-d]pyrimidin-5-yl)-N-methylbenzamide]",> 7.00
3,"CNC(=O)c1ccc(-c2c[nH]c3nc(Nc4ccc(C(=O)NC5COC5)cc4OC)nc(OC4CCC4)c23)cn1 [Example 352, 5-(4-cyclobutoxy-2-(2-methoxy-4-(oxetan-3-ylcarbamoyl)phenylamino)-7H-pyrrolo[2,3-d]pyrimidin-5-yl)-N-methylpicolinamide]",5.00 to 6.00
